Among the test systems are EKVX NSCLC; HCT-116 colon; KM12 colon; LOX IMVI melanoma; MOLT-4 leukemia; SF-539 CNS; SR leukemia; UACC-62 melanoma; UO-31 renal; A498 renal.
Common to all, as to assay: inhibition of tumour cell growth, NCI panel, 48 h

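Where inhibition never reached the appropriate level, the endpoint shown equals the highest concentration tested. Otherwise, values were interpolated linearly from a five-concentration, 48-hour dose response in 96-well plates. At the GI50, growth is halved. Definition used: TGI = concentration required for complete inhibition of growth.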

With `CC(=O)Nc1ccc(/C=c2\sc3nnc(CCC(=O)Nc4ccccc4Cl)n3c2=O)cc1`, the TGI was over 100 µM in the assay with EKVX NSCLC; over 100 µM in the assay on HCT-116 colon; 46.4 µM in the assay on KM12 colon; 34.5 µM in the assay with LOX IMVI melanoma; 44.7 µM in the assay on MOLT-4 leukemia; 58 µM in the assay with SF-539 CNS. In addition, the TGI is 43.2 µM with SR leukemia, 56.2 µM in the assay with UACC-62 melanoma and over 100 µM in the assay with UO-31 renal.

`CCCCCCCCOCC(O)COC(C)C` (stereo not drawn): the TGI in the assay on A498 renal is over 100 µM; with HCT-116 colon, over 100 µM; in the assay on LOX IMVI melanoma it was over 100 µM; in the assay on MOLT-4 leukemia, 45 µM; in the assay with SR leukemia, 40.2 µM; in the assay with UACC-62 melanoma, over 100 µM. In the assay with UO-31 renal, this compound had a TGI of over 100 µM.

Take `Cn1cc(C2=C(c3ccccc3[N+](=O)[O-])C(=O)NC2=O)c2ccccc21`: the GI50 in the assay with A498 renal was 0.384 µM; in the assay with HCT-116 colon, 1.38 µM; with KM12 colon, 3.25 µM; in the assay on LOX IMVI melanoma, 3.13 µM; in the assay with SF-539 CNS, 2.61 µM; with SR leukemia it was 2.33 µM. Also, the GI50 is 3.68 µM with UACC-62 melanoma and 5.28 µM in the assay with UO-31 renal. For the same compound, the TGI is 2.57 µM with A498 renal; over 25 µM in the assay with HCT-116 colon; 13.3 µM in the assay with KM12 colon; over 25 µM with LOX IMVI melanoma; 10.1 µM with SF-539 CNS; 12.9 µM with SR leukemia. For the same compound, the results for the TGI in the assay on UACC-62 melanoma and in the assay with UO-31 renal were 12.1 µM and over 20.5 µM, respectively.

As for `O=c1cc(-c2ccccc2)oc2ccc(OC/C(=N/O)c3ccccc3)cc12`, the GI50 in the assay with EKVX NSCLC was 3.82 µM; with HCT-116 colon, 3.11 µM; in the assay with KM12 colon, 1.95 µM; with LOX IMVI melanoma it was 2.76 µM; with MOLT-4 leukemia it was 5.72 µM; in the assay with SF-539 CNS, 1.39 µM. In addition, the GI50 in the assay on SR leukemia was 1.73 µM; in the assay with UACC-62 melanoma, 2.48 µM; with UO-31 renal, 4.34 µM. Moreover, the TGI in the assay on EKVX NSCLC is over 50 µM; with HCT-116 colon, over 50 µM; in the assay on KM12 colon it was over 50 µM; with LOX IMVI melanoma it was 20.2 µM; in the assay on MOLT-4 leukemia, over 50 µM; with SF-539 CNS it was 2.93 µM. In addition, the TGI with SR leukemia, with UACC-62 melanoma and in the assay with UO-31 renal was over 50 µM throughout.

As to `CC[C@H](NC(=O)[C@H]1CCCCN1C)C(=O)N(C)[C@H](C[C@@H](OC(C)=O)c1nc(C(=O)N[C@@H](Cc2ccccc2)C[C@H](C)C(=O)O)cs1)C(C)C`, the GI50 in the assay with EKVX NSCLC is 0.01 µM; in the assay with HCT-116 colon, 0.00366 µM; with KM12 colon, 0.00192 µM; in the assay on LOX IMVI melanoma, 0.0103 µM; in the assay on MOLT-4 leukemia, 0.0106 µM; in the assay on SF-539 CNS, 0.0035 µM. The GI50 was 0.00183 µM in the assay on SR leukemia, 0.00161 µM with UACC-62 melanoma and 0.0741 µM in the assay with UO-31 renal. Also, the TGI is over 14.3 µM with EKVX NSCLC; over 14.3 µM in the assay with HCT-116 colon; over 14.3 µM in the assay on KM12 colon; over 14.3 µM in the assay on LOX IMVI melanoma; over 14.3 µM in the assay on MOLT-4 leukemia; 0.0265 µM in the assay with SF-539 CNS. The TGI in the assay with SR leukemia, in the assay with UACC-62 melanoma and in the assay on UO-31 renal was over 14.3 µM throughout.

For the compound `CCC(CC)c1nc(Nc2ccc(C(=O)OC)cc2)c2ccccc2n1`, the GI50 was 15.9 µM with EKVX NSCLC; 12.9 µM in the assay on HCT-116 colon; 8.01 µM in the assay with KM12 colon; 11.1 µM in the assay on LOX IMVI melanoma; 1.41 µM with MOLT-4 leukemia; over 20.5 µM with SF-539 CNS. The GI50 was 10.1 µM with SR leukemia, 9.13 µM with UACC-62 melanoma and 7.94 µM in the assay with UO-31 renal. For the same compound, the TGI in the assay with EKVX NSCLC is over 29.4 µM; in the assay with HCT-116 colon, over 28.6 µM; in the assay on KM12 colon, 18 µM; with LOX IMVI melanoma it was 31.7 µM; with MOLT-4 leukemia, 3.67 µM; in the assay on SF-539 CNS, over 28.6 µM. Moreover, the TGI turned out to be 26.7 µM in the assay on SR leukemia, 18.6 µM in the assay with UACC-62 melanoma and 15.4 µM in the assay with UO-31 renal.

With `COc1ccc(OC(C)=O)c2c1CCC=CC2=O`, the TGI with A498 renal was 37.5 µM; with HCT-116 colon, 34.3 µM; with KM12 colon it was 12.6 µM; in the assay on LOX IMVI melanoma, 17.5 µM; with MOLT-4 leukemia, 33.1 µM; in the assay on SF-539 CNS, 30.9 µM. Also, the TGI with SR leukemia was 40.3 µM; with UACC-62 melanoma, 26.2 µM; in the assay with UO-31 renal it was 30.9 µM.

On to `COc1cccc2ccc(C(=O)c3ccccc3)nc12`, for which the TGI in the assay on EKVX NSCLC, in the assay with HCT-116 colon, in the assay with KM12 colon, in the assay with LOX IMVI melanoma, in the assay with MOLT-4 leukemia and with SF-539 CNS was over 100 µM in each case. In addition, the TGI in the assay on SR leukemia and in the assay with UACC-62 melanoma was over 100 µM each time.

In the case of `COc1ccc2sc3cccc(NCCN(C)C)c3c(=O)c2c1`, the GI50 was 1.2 µM in the assay on A498 renal; 2.78 µM in the assay on HCT-116 colon; 3.72 µM in the assay with KM12 colon; 2.5 µM with MOLT-4 leukemia; 3.52 µM in the assay with SF-539 CNS; 2.29 µM with SR leukemia. Also, the GI50 in the assay on UACC-62 melanoma was 1.76 µM; with UO-31 renal it was 2.06 µM. Also, the TGI in the assay on A498 renal worked out at 9.38 µM; in the assay with HCT-116 colon, 9.69 µM; in the assay on KM12 colon, 12.1 µM; with MOLT-4 leukemia, 6.01 µM; in the assay on SF-539 CNS it was 13.3 µM; in the assay on SR leukemia, 5.86 µM. Besides, the TGI in the assay with UACC-62 melanoma is 3.24 µM; in the assay on UO-31 renal it was 6.97 µM.

As to `CO/C=C/C(=O)c1cc2cnc3c(=N)cc(NC(=O)C(C)C)c([nH]1)c23`, the GI50 is 0.1 µM in the assay with A498 renal; 0.0585 µM in the assay with HCT-116 colon; 0.196 µM in the assay with KM12 colon; 0.0694 µM in the assay on LOX IMVI melanoma; 0.0159 µM in the assay on MOLT-4 leukemia; 0.0596 µM in the assay with SF-539 CNS. In addition, the GI50 with SR leukemia is 0.0489 µM; in the assay with UACC-62 melanoma it was 0.0408 µM; with UO-31 renal, 0.0169 µM. The TGI in the assay on A498 renal came to 0.602 µM; with HCT-116 colon it was 0.282 µM; in the assay on KM12 colon, 1.86 µM; in the assay on LOX IMVI melanoma it was 0.429 µM; in the assay with MOLT-4 leukemia it was 0.166 µM; in the assay with SF-539 CNS, 0.333 µM. Further, the results for the TGI in the assay on SR leukemia, in the assay with UACC-62 melanoma and in the assay with UO-31 renal were 0.427 µM, 0.185 µM and 0.323 µM, respectively.

Turning to `C=CC(=O)NCCSCCCOC1(C(=O)O)CC(O)C(NC(C)=O)C(C(O)C(O)CO)O1` (stereo not drawn), the TGI in the assay with HCT-116 colon, in the assay with KM12 colon, with LOX IMVI melanoma, with MOLT-4 leukemia, in the assay with SF-539 CNS and in the assay on SR leukemia was over 100 µM throughout. Further, the TGI in the assay on UACC-62 melanoma and in the assay with UO-31 renal was over 100 µM throughout.

Turning to `CCOC(=O)c1ccc(Nc2sc(C(=O)c3ccc(Br)cc3)c(N)c2C#N)cc1`, the GI50 in the assay on A498 renal is 0.321 µM; in the assay with HCT-116 colon, 0.732 µM; with KM12 colon it was 0.775 µM; with LOX IMVI melanoma it was 1.64 µM; in the assay on MOLT-4 leukemia it was 4.61 µM; with SF-539 CNS, 1.07 µM. The GI50 with SR leukemia was 0.658 µM; with UACC-62 melanoma, 0.483 µM; in the assay with UO-31 renal it was 1.93 µM. Besides, the TGI with A498 renal was 6.02 µM; in the assay on HCT-116 colon, over 100 µM; in the assay with KM12 colon it was over 100 µM; with LOX IMVI melanoma it was over 100 µM; in the assay with MOLT-4 leukemia, over 100 µM; in the assay on SF-539 CNS it was over 100 µM. The TGI in the assay with SR leukemia is over 45.5 µM; in the assay with UACC-62 melanoma, over 100 µM; in the assay on UO-31 renal, over 100 µM.

Regarding `OC(c1cc(-c2cccc(Cl)c2)nc2ccccc12)C1CCCCN1` (stereo not drawn), the GI50 in the assay with EKVX NSCLC is 1.45 µM; in the assay on HCT-116 colon, 1.75 µM; in the assay on KM12 colon, 1.79 µM; in the assay with LOX IMVI melanoma, 1.76 µM; with MOLT-4 leukemia, 1.6 µM; in the assay on SF-539 CNS it was 1.93 µM. For the same compound, the GI50 in the assay with SR leukemia is 1.27 µM; in the assay with UACC-62 melanoma it was 1.93 µM; with UO-31 renal it was 1.36 µM. The TGI with EKVX NSCLC worked out at 2.94 µM; with HCT-116 colon, 3.38 µM; with KM12 colon, 3.2 µM; in the assay on LOX IMVI melanoma, 3.36 µM; in the assay on MOLT-4 leukemia, 4.14 µM; in the assay with SF-539 CNS, 3.61 µM. The TGI with SR leukemia is 3.8 µM; in the assay on UACC-62 melanoma, 3.58 µM; in the assay with UO-31 renal, 2.74 µM.

As for `CC(C)N1CC2CN(Cc3ccccc3)CC(C1)C2=O`, the TGI in the assay on HCT-116 colon, with KM12 colon, in the assay with LOX IMVI melanoma, with MOLT-4 leukemia, with SF-539 CNS and in the assay on SR leukemia was over 100 µM each time. Further, the TGI in the assay on UACC-62 melanoma and in the assay with UO-31 renal was over 100 µM throughout.

For the compound `O=C(O)/C=C/C(=O)N1Cc2cc3ccccc3nc2C1`, the TGI in the assay on EKVX NSCLC, in the assay on HCT-116 colon, in the assay with KM12 colon, in the assay on LOX IMVI melanoma, in the assay with MOLT-4 leukemia and with SF-539 CNS was over 100 µM throughout. For the same compound, the TGI with SR leukemia, in the assay with UACC-62 melanoma and with UO-31 renal was over 100 µM each time.

The values are drawn from PubChem BioAssay (NCI).
